Test in all cases: biochemical
The target in one test is T1, ZmDRIK1-K217-P492 (Zea mays, UniProt C0P4K9).
T1 construct: kinase domain, K217-P492
T1 sequence (C0P4K9 1-514): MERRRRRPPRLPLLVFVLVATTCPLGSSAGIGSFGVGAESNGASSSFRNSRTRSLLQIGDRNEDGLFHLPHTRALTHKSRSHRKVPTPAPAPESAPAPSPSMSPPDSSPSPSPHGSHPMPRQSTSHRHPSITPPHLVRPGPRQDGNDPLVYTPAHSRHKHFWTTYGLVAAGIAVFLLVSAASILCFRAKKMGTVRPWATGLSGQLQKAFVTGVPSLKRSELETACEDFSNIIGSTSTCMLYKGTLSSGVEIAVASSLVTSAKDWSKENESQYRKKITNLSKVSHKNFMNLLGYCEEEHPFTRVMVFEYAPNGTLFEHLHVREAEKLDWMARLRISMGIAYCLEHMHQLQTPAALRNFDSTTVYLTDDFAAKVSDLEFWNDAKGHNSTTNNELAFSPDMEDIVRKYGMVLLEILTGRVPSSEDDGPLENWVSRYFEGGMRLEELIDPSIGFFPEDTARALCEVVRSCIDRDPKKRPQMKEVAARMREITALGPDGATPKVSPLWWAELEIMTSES
The conditions noted are these: read-out: dTm B, sheet ZmDRIK1-K217-P492;; DSF, Boltzmann fit, 0.1% DMSO.

For the next test, the target named is T2, ZmDRIK1-K217-S514 (Zea mays, UniProt C0P4K9).
T2 construct: kinase domain, K217-S514
T2 sequence (C0P4K9 1-514): T1 sequence (C0P4K9 1-514)
The conditions noted are these: read-out: dTm B, sheet ZmDRIK1-K217-S514;; DSF, Boltzmann fit, 0.1% DMSO.

A further test deals with T3, ZmDRIK1-R187-P492 (Zea mays, UniProt C0P4K9).
T3 construct: kinase domain, R187-P492
T3 sequence (C0P4K9 1-514): T1 sequence (C0P4K9 1-514)
The settings on record: read-out: dTm B, DSF, Boltzmann fit, 0.1% DMSO.

For test [1], the target named is T4, ZmDRIK1 (DROUGHT RESPONSIVE INACTIVE KINASE 1), kinase domain (Zea mays, UniProt C0P4K9).
T4 construct: gene ZEAMMB73_Zm00001d028770; ZmDRIK1-KD R187-S514 (kinase domain)
T4 sequence (C0P4K9 187-514): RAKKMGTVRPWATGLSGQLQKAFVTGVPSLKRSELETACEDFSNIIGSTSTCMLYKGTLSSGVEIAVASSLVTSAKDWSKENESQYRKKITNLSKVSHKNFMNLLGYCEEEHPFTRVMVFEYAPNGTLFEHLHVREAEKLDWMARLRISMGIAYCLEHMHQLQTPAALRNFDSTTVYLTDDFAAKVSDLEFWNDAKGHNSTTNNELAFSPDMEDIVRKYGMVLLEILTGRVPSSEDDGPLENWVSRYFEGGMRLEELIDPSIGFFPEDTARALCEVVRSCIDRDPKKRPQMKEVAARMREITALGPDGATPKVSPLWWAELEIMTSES
The conditions noted are these: read-out: dTm B, sheet ZmDRIK1-R187-S514;; DSF, Boltzmann fit, 0.1% DMSO.

Each structure is given as a SMILES string. Counter-ions that a name gives are not always drawn.

The values that follow come from PMC7158045 (BMC Plant Biology, 2020).

For the molecule `O=c1cc(N2CCOCC2)oc2c(-c3ccccc3)cccc12` [LY294002], the ΔTm at 10 µM at ZmDRIK1-K217-P492 is -0.874 °C; on ZmDRIK1-K217-S514, -0.184 °C; at ZmDRIK1-R187-P492, -0.0828 °C; in test [1], -0.881 °C.
For `CCN(CC)CCCCNc1ncc2cc(-c3cc(OC)cc(OC)c3)c(NC(=O)NC(C)(C)C)nc2n1` [PD173074], the ΔTm at 10 µM was -0.962 °C at ZmDRIK1-K217-P492, -0.228 °C on ZmDRIK1-K217-S514, -0.212 °C on ZmDRIK1-R187-P492 and -0.711 °C in test [1].
As to `CC(C)CC(=O)Nc1n[nH]c2c1CN(C(=O)C1CCN(C)CC1)C2(C)C` [PHA-793887], the ΔTm at 10 µM was -0.634 °C at ZmDRIK1-K217-P492, -0.312 °C on ZmDRIK1-K217-S514, -0.158 °C at ZmDRIK1-R187-P492 and -0.826 °C in test [1].
Turning to `Cc1[nH]c(/C=C2\C(=O)Nc3ccc(S(=O)(=O)N(C)c4cccc(Cl)c4)cc32)c(C)c1C(=O)N1CCN(C)CC1` [SU11274], the ΔTm at 10 µM at ZmDRIK1-K217-P492 was -0.463 °C; at ZmDRIK1-K217-S514, -0.605 °C; at ZmDRIK1-R187-P492, -0.288 °C; in test [1], -1.31 °C.
As for `Oc1ccc(-c2nc(-c3ccc(F)cc3)c(-c3ccncc3)[nH]2)cc1` [SB202190 (FHPI)], the ΔTm at 10 µM at ZmDRIK1-K217-P492 was 1.22 °C; at ZmDRIK1-K217-S514, 2.58 °C; at ZmDRIK1-R187-P492 it was -18.3 °C; in test [1], 0.194 °C.
For `Cc1nc(Nc2ncc(C(=O)Nc3c(C)cccc3Cl)s2)cc(N2CCN(CCO)CC2)n1` [Dasatinib], the ΔTm at 10 µM on ZmDRIK1-K217-P492 is -1.24 °C; at ZmDRIK1-K217-S514 it was -0.388 °C; at ZmDRIK1-R187-P492, -0.493 °C; in test [1], -0.74 °C.
With `CC(=O)Nc1cccc(-n2c(=O)n(C3CC3)c(=O)c3c(Nc4ccc(I)cc4F)n(C)c(=O)c(C)c32)c1` [Trametinib (GSK1120212)], the ΔTm at 10 µM on ZmDRIK1-K217-P492 is -1.15 °C; on ZmDRIK1-K217-S514, -0.496 °C; at ZmDRIK1-R187-P492, -0.327 °C; in test [1], -0.482 °C.
As to `O=C(c1ccc(Nc2nccc(-c3cc4ccccc4s3)n2)cc1)N1CCC(N2CCCC2)CC1` [IKK-16 (IKK Inhibitor VII)], the ΔTm at 10 µM on ZmDRIK1-K217-P492 was -0.786 °C; at ZmDRIK1-K217-S514, 0.121 °C; at ZmDRIK1-R187-P492 it was 0.0892 °C; in test [1] it was -0.0967 °C.
Turning to `Cc1cc(NC(=O)c2cccc(NC(=O)/C=C/CN(C)C)c2)ccc1Nc1nccc(-c2cccnc2)n1` [JNK-IN-8], the ΔTm at 10 µM on ZmDRIK1-K217-P492 was -1.16 °C; on ZmDRIK1-K217-S514 it was -0.306 °C; at ZmDRIK1-R187-P492, -0.326 °C; in test [1], -0.726 °C.
The matching figures for `CC(C)(C)n1nc(-c2ccc(Cl)cc2)c2c(N)ncnc21` [PP2]: -1.25 °C, -0.458 °C, -0.394 °C and -0.713 °C.
In the same order, the values of `Nc1ncnc2c1c(-c1cccc(OCc3ccccc3)c1)cn2[C@H]1C[C@@H](CN2CCC2)C1` [NVP-AEW541] are -1.08 °C, -0.366 °C, -0.332 °C and -0.841 °C.
Consider `O=c1c(O)c(-c2ccc(O)c(O)c2)oc2cc(O)cc(O)c12` [Quercetin], for which the ΔTm at 10 µM on ZmDRIK1-K217-P492 is -1.11 °C; on ZmDRIK1-K217-S514, -0.0338 °C; at ZmDRIK1-R187-P492, -0.357 °C; in test [1], -0.63 °C.
Take `CCN1CCN(C(=O)Cc2ccc(Nc3ncc(F)c(Nc4ccc(C(=O)Nc5ccccc5Cl)cc4)n3)cc2)CC1` [Aurora A Inhibitor I]: the ΔTm at 10 µM is -1.33 °C at ZmDRIK1-K217-P492, -0.286 °C on ZmDRIK1-K217-S514, -0.457 °C at ZmDRIK1-R187-P492 and -0.616 °C in test [1].
In the same order, the values of `N#CC(C#N)=Cc1ccc(O)c(O)c1` [AG-18] are -0.987 °C, -0.556 °C, -0.457 °C and -1.16 °C.
As to `Cc1cc(Nc2nc(N[C@@H](C)c3ncc(F)cn3)ncc2Cl)[nH]n1` [AZD1480], the ΔTm at 10 µM at ZmDRIK1-K217-P492 was -0.856 °C; on ZmDRIK1-K217-S514, -0.215 °C; on ZmDRIK1-R187-P492 it was -0.161 °C; in test [1], -0.906 °C.
In the case of `CN(C)c1ccc(-c2nc3ncc(Cl)c(N4CCN(CC(=O)Nc5nccs5)CC4)c3[nH]2)cc1` [CCT129202], the ΔTm at 10 µM at ZmDRIK1-K217-P492 is -0.83 °C; on ZmDRIK1-K217-S514, -0.39 °C; at ZmDRIK1-R187-P492 it was -0.353 °C; in test [1] it was -1.56 °C.
The matching figures for `Cc1cc([C@@H](C)Nc2ccccc2C(=O)O)c2nc(N3CCOCC3)cc(=O)n2c1` [AZD6482]: -1.04 °C, -0.29 °C, -0.2 °C and -0.715 °C.
For the molecule `Cc1cc(Nc2ncnc3ccc(-c4ccc(CNCCS(C)(=O)=O)o4)cc23)ccc1Oc1ccn2ncnc2c1` [HER2-Inhibitor-1], the ΔTm at 10 µM at ZmDRIK1-K217-P492 is -0.972 °C; on ZmDRIK1-K217-S514, 0.102 °C; at ZmDRIK1-R187-P492, 0.197 °C; in test [1] it was -0.782 °C.
Take `CCCCCCCCc1ccc(CCC(N)(CO)CO)cc1` [Fingolimod (FTY720) HCl]: the ΔTm at 10 µM on ZmDRIK1-K217-P492 is -1.47 °C; on ZmDRIK1-K217-S514, -0.608 °C; on ZmDRIK1-R187-P492 it was -0.447 °C; in test [1], -0.542 °C.
In the case of `CN1CCC(CNc2ccc3ncc(-c4cccc(OC(F)(F)F)c4)n3n2)CC1` [SGI-1776 free base], the ΔTm at 10 µM was -0.576 °C on ZmDRIK1-K217-P492, -0.336 °C on ZmDRIK1-K217-S514, -0.27 °C at ZmDRIK1-R187-P492 and -1.1 °C in test [1].
Turning to `Cc1nc(Nc2n[nH]c3c2CN(C(=O)N[C@H](CN(C)C)c2ccccc2)C3(C)C)c2sccc2n1` [PF-3758309], the ΔTm at 10 µM on ZmDRIK1-K217-P492 is -0.748 °C; on ZmDRIK1-K217-S514, -0.258 °C; at ZmDRIK1-R187-P492 it was -0.393 °C; in test [1], -0.774 °C.
Regarding `O=C(O)c1ccc(Nc2ncc3c(n2)-c2ccc(Cl)cc2C(c2c(F)cccc2F)=NC3)cc1` [MLN8054], the ΔTm at 10 µM on ZmDRIK1-K217-P492 was -1.36 °C; on ZmDRIK1-K217-S514 it was -0.583 °C; at ZmDRIK1-R187-P492, -0.341 °C; in test [1], -0.958 °C.
Regarding `Cc1c(F)cc(C(=O)NC2CC2)cc1-c1ccc(C(=O)NCC(C)(C)C)cn1` [Losmapimod (GW856553X)], the ΔTm at 10 µM is -0.577 °C at ZmDRIK1-K217-P492, -0.464 °C on ZmDRIK1-K217-S514, -0.242 °C on ZmDRIK1-R187-P492 and -0.594 °C in test [1].
For the molecule `CCCS(=O)(=O)Nc1ccc(F)c(C(=O)c2c[nH]c3ncc(Cl)cc23)c1F` [PLX-4720], the ΔTm at 10 µM was -0.653 °C on ZmDRIK1-K217-P492, -0.478 °C on ZmDRIK1-K217-S514, -0.12 °C on ZmDRIK1-R187-P492 and -1.27 °C in test [1].
On to `N#CC1(c2ccc(NC(=O)c3cccnc3NCc3ccncc3)cc2)CCCC1` [Apatinib], for which the ΔTm at 10 µM is -0.944 °C at ZmDRIK1-K217-P492, -0.311 °C at ZmDRIK1-K217-S514, -0.28 °C at ZmDRIK1-R187-P492 and -0.808 °C in test [1].
In the same order, the values of `C[C@@H](N)[C@H]1CC[C@H](C(=O)Nc2ccncc2)CC1` [Y-27632 2HCl] are -1.25 °C, -0.475 °C, -0.155 °C and -0.584 °C.
The matching figures for `CC(=O)Nc1nc(C)c(-c2ccc(Cl)c(S(=O)(=O)NCCO)c2)s1` [PIK-93]: -0.556 °C, -0.175 °C, -0.0815 °C and -1.08 °C.
Take `FC(F)(F)c1ccc(/C=C/c2nc(COc3ccc(CCCCn4ccnn4)cc3)co2)cc1` [Mubritinib (TAK 165)]: the ΔTm at 10 µM at ZmDRIK1-K217-P492 was -0.803 °C; at ZmDRIK1-K217-S514, -0.334 °C; on ZmDRIK1-R187-P492 it was -0.156 °C; in test [1] it was -0.964 °C.
With `O=C(NCc1cccc(O)c1)Nc1nc(-c2ccncc2)cs1` [RKI-1447], the ΔTm at 10 µM at ZmDRIK1-K217-P492 is -0.48 °C; at ZmDRIK1-K217-S514, -0.42 °C; on ZmDRIK1-R187-P492, 0.716 °C; in test [1] it was -0.456 °C.
As for `COc1ccc(COc2cc3oc(=O)c4cc(C(C)O)ccc4c3cc2OC)cc1` (stereo not drawn) [Palomid 529 (P529)], the ΔTm at 10 µM at ZmDRIK1-K217-P492 was -0.76 °C; at ZmDRIK1-K217-S514 it was -0.134 °C; on ZmDRIK1-R187-P492 it was -0.229 °C; in test [1], -0.623 °C.
